Results reported in US20230392126A1, “TISSUE ORGANOIDS” (priority 2016, published 2023).

Legend:
[1] = WT GGBP; read-out: glucose binding affinity (Kd); cited from earlier work
[2] = test system: epidermal progenitor cells; experiment: Suicide gene-induced cell death in epidermal progenitor cells upon prodrug treatment; assay type: cell-based; conditions: ganciclovir and 5-fluorocytosine, respectively; data not shown
Description: To test this possibility, a Rosa26 targeting vector encoding phenylalanine ammonia lyase (PAL) (SEQ ID NO: 51) together with inducible “suicide” genes HSV-TK (Herpes Simplex Virus Thymidine Kinase) (SEQ ID NO: 52) and yCD (yeast cytosine deaminase) (SEQ ID NO: 53) was used for epidermal progenitor cell transfection.

[3] = test system: mouse epidermal stem cells; experiment: Cell proliferation and differentiation of engineered mouse epidermal cells in vitro (cell cycle FACS, calcium shift western blot); assay type: cell-based
Method: Primary human neonatal epidermal keratinocytes were obtained from Thermo Fischer® (C0015C), and cultured with Epilife® medium (Thermo Fischer, M-EPICF-500) with manufacturer's recommended procedures. Calcium shift was performed to induce differentiation of primary keratinocytes by increasing the calcium concentration in culture media to 1.5 mM.
Propidium iodide (PI) staining followed by flow cytometry were used to determine the effect of cell cycle profiles. Mouse and human epidermal cells were cultured in two 6 cm cell culture dish for 24 hours, respectively. Cells were trypsinized, and 1×10^5 cells from each dish were collected, followed by one PBS wash. […] After staining, the cells were analyzed immediately using flow cytometer BD FACSCanto™ II (BD Biosciences, San Jose, CA) with an excitation wavelength at 488 nm and emission at 585 nm. DNA content and histograms of cell cycle distribution were analyzed using FlowJo™ software, version 10 (FLOWJO LLC, OR).
Western blotting was performed as described previously (Blanpain et al.). […] Visualization and quantification was carried out with the LI-COR Odyssey® scanner and software (LI-COR Biosciences).
Propidium iodide (PI) staining followed by flow cytometry were used to determine the effect of cell cycle profiles. […] DNA content and histograms of cell cycle distribution were analyzed using FlowJo™ software, version 10 (FLOWJO LLC, OR). […]

[4] = Phenylalanine clearance by PAL-expressing mouse epidermal keratinocytes in vitro; assay type: cell-based
Description: Therefore, using CRISPR-mediated genome editing with epidermal progenitor cell technology the possibility for treatment of PKU by cutaneous expression of PAL is investigated.
A complete phenotypic change from brown hair coat to dark black fur is also expected. For tissue enzymatic analysis, PAL activity detection in grafted skin is expected but not in other tissues. PAH activity is absent in the liver of the mutant mice. Female mice are more resistant to PKU therapy. If this is the case for cutaneous gene therapy, female PAH mutant mice are tested to determine whether they require larger skin grafts or more grafts than male mice for correction of hyperphenylalaninemia.

[5] = PKU mouse model (PAH mutant, BTBR strain) grafted with PAL-expressing cells: plasma phenylalanine, fur color, tissue enzyme activity; assay type: in vivo; conditions: PAH mutant mice, ~2 mM plasma phenylalanine
Description: The mouse model of PKU has been developed by ENU (N-ethyl-N-nitrosourea)-mediated mutagenesis in BTBR strain (Jax strain 002232).
With establishment of skin engraftment in PAH mutant mice, plasma phenylalanine level are monitored. Three weeks post skin grafting with PAL expressing cells or control cells (BTBR epidermal progenitor cells treated with control vectors), blood samples are collected from the tail clipping biweekly for up to 30 weeks. Plasma is separated by centrifugation. Phenylalanine concentration is determined by established fluorometric protocol. Lowering of phenylalanine level restores melanin biosynthesis, and leads to a change of fur color. Potential alteration in fur coat color is recorded weekly for all the grafted animals. […] Thus, two different cohorts of animals (male and female) are established to test the potential gender-dependent effect of cutaneous gene therapy in vivo.
At the endpoint of the experiment (30 weeks), grafted animals are euthanized and tissue samples (grafted skin, host skin, and liver) are collected. Presence of enzyme activity in the tissues is determined by PAH and PAL activity assay.
A complete phenotypic change from brown hair coat to dark black fur is also expected. For tissue enzymatic analysis, PAL activity detection in grafted skin is expected but not in other tissues. PAH activity is absent in the liver of the mutant mice. […]

[6] = i.p., mice; cited from earlier work
[7] = Acute drug overdose test: cocaine-induced lethality; assay type: in vivo, mouse
Method: For all behavioral experiments except where noted, C57BL/6J mice were used. Roughly equal numbers of adult male and female mice were group-housed until surgery. Mice were maintained under controlled temperature and humidity conditions on a 12 h:12 h light:dark cycle (lights on at 7:00). Water and food were available ad libitum. Mice weighed around 25-30 g at the beginning of the experiments. All procedures followed National Institutes of Health Guide for the Care and Use of Laboratory Animal and were approved by the University of Chicago Institutional Animal Care and Use Committee.
Drug: Cocaine HCl and methamphetamine HCl (Sigma-Aldrich, Saint Louis, MO) were dissolved in sterile saline and delivered intraperitoneally at appropriates doses in a volume of 10 mL/kg. Ethanol (Sigma-Aldrich, Saint Louis, MO, 95%, density=0.816) was prepared in 20% (v/v) diluted in sterile saline and delivered intraperitoneally at appropriate doses. Vehicle (sterile saline) was intraperitoneally administered at 10 mL/kg as a control.
Acute drug overdose test: Two weeks after grafting surgery, 4 groups of GhBChE and 4 groups of GWT mice (n=8 each in each group) received i.p. injections of cocaine at […]. As a control, 4 groups of GhBChE and 4 groups of GWT mice (n=8 each) received i.p. injections of methamphetamine (METH) at 34, 68 (LD50), 100, and 160 mg/kg. Two each of GhBChE and GWT mice with CD1 mice as hosts were also used to videotape acute cocaine (80 mg/kg) induced behaviors. Mice were monitored for 2 h following injection and percent of cocaine- and METH-induced lethality was calculated.
To first determine whether engrafting hBChE-expressing cells protects mice from acute systemic toxicity of cocaine, we delivered different doses of cocaine to grafted mice and calculated the lethality rates of cocaine. […] Parallel testing was conducted to test the toxicity of a related stimulant METH (methamphetamine) in GhBChE and GWT mice.

GLP-1 receptor = biological target: T1, GLP-1 receptor (Mus musculus, UniProt O35659); conditions: mice; cited from earlier work
T1 construct: host or cells: living mice (endogenous receptor)
T1 sequence (O35659 22-463): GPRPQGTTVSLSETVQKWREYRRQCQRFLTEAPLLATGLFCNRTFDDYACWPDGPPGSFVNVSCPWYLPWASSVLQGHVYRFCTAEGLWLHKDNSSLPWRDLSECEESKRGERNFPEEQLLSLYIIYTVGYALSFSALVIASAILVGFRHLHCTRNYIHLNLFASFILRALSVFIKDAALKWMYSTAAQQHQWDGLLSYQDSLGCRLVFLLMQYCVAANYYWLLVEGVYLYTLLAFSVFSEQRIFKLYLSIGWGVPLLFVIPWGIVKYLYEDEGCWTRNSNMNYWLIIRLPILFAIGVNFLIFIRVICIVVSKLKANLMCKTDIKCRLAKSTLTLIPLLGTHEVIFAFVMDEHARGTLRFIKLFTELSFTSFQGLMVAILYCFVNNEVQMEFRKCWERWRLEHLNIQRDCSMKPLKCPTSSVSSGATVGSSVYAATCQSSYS

Which Kd [1] does the source give for “WT (wild type) GGBP: wild type glucose/galactose-binding protein of E. coli periplasm” here?
The Kd was 0.2 µM.

With “HSV-TK: inducible suicide gene, Herpes Simplex Virus Thymidine Kinase (SEQ ID NO: 52), prodrug ganciclovir” as the molecule, how does the “cell death upon prodrug treatment” value [2] read?
The value was “efficiently induced cell death upon treatment with prodrugs”.

Which “effect of expression on cell proliferation / differentiation in vitro” value [3] does the source give for “PAL: Phenylalanine ammonia-lyase (SEQ ID NO: 51) expressed in epidermal keratinocytes” here?
The value was “does not significantly alter cell proliferation or differentiation in vitro”.

What about the “degradation of phenylalanine in culture media compared with PAH” value ([4]; lentivirus-infected mouse epidermal keratinocytes, preliminary) of the same molecule?
The value was “much faster than cells expressing PAH”.

What about the “phenylalanine removal by grafts” value ([4]; two 1 cm^2 epidermal grafts, ~2×10^7 metabolically active cells) of the same molecule?
Its value is 57 pmol of phenylalanine per day.

What about the effect on hyperphenylalaninemia [5] of the same molecule?
Its effect on hyperphenylalaninemia is “sufficient for a complete reversal of hyperphenylalaninemia”.

For `CN[C@@H](C)Cc1ccccc1` [METH, methamphetamine], which LD50 [6] is on record?
The LD50 was 68 mg/kg.

With `COC(=O)[C@H]1[C@@H](OC(=O)c2ccccc2)C[C@@H]2CC[C@H]1N2C` [cocaine] as the molecule, how does the lethality ([7]; 80 mg/kg i.p., control mice grafted with WT epidermal cells (GWT)) read?
Its lethality is “roughly 50%”.

What about the lethality ([7]; 120 mg/kg i.p., GWT mice) of the same molecule?
Its lethality is 100%.

And the lethality ([7]; 160 mg/kg i.p., GWT mice)?
The lethality was 100%.

With Exendin-4 as the molecule, how does the “effect on nicotine-induced behaviours” value (GLP-1 receptor) read?
Its value is “attenuates nicotine-induced locomotor stimulation, accumbal dopamine release, and the expression of conditioned place preference in mice”.
